Assay: Metabolic excretion study (urine and feces collection in metabolic cages) of 177Lu-labelled human IgG conjugates
Format: in vivo, mice (normal CD-1 or athymic CD-1 nude)
Settings: mice, intravenous, 7 day period; tested as [177Lu]-HuMIgG conjugates
Description: Groups of 4 or 5 mice (normal CD-1 or athymic CD-1 nude) were injected intravenously with approximately 15 microcuries of radiolabelled test compound. Test compounds with various linkers were synthesized and radiolabelled with lutetium-177. For pharmacokinetic studies, animals were sacrificed at specific time points, and blood and tumor (when applicable) were analyzed for total radioactivity. For metabolism studies, animals were placed in metabolic cages (4-5 per cage) for urine and feces collection every 24 hours for up to 7 days. The radioactive content of urine and feces samples was quantified and converted to total urine or feces output based on weight. Excretion profiles for urine, feces, or total excretion (urine+feces) were generated by plotting cumulative % injected dose (%ID) over time.
The human IgG preparation used consisted of a purified mixture of all IgG isotypes (IgG1-4).

| Compound | total excretion of radioactivity compared to Compound A-HuMIgG |
| --- | --- |
| O=C(O)CN1CCN(CC(=O)O)CCN(C(CCC(=O)NCCCCCCCCCCC(=O)Oc2c(F)c(F)cc(F)c2F)C(=O)O)CCN(CC(=O)O)CC1 (centres unmarked) [Compound B, 4-{[11-oxo-11-(2,3,5,6-tetrafluorophenoxy)undecyl]carbamoyl}-2-[4,7,10-tris(carboxymethyl)-1,4,7,10-tetraazacyclododecan-1-yl]butanoic acid] | increased the amount total excretion of radioactivity |
| O=C(O)CN1CCN(CC(=O)O)CCN(C(CCC(=O)NCCOCCOCCOCCC(=O)Oc2c(F)c(F)cc(F)c2F)C(=O)O)CCN(CC(=O)O)CC1 (centres unmarked) [Compound C, 4-{[2-(2-{2-[3-oxo-3-(2,3,5,6-tetrafluorophenoxy)propoxy]ethoxy}ethoxy)ethyl]carbamoyl}-2-[4,7,10-tris(carboxymethyl)-1,4,7,10-tetraazacyclododecan-1-yl]butanoic acid] | increased the amount total excretion of radioactivity |
